Assay results as given in patent US20100305068A1, “COMPOUNDS AND METHODS FOR MODULATING PROTEIN TRAFFICKING” (priority 2006, published 2010).
Where two headings read alike, the source gives them in different places.

Test system: pdr5 ypt1^ts cells
Test: microbe, parasite or virus in culture
Type: cell-based, yeast
Conditions: for minimal effective concentration: Saccharomyces cerevisiae, lowest concentration tested giving growth above the 0 μM background, read-out: ypt1-ts MRC (minimal rescue concentration); for minimal effective concentration / optical density, ypt1-ts, 0.39 / optical density, ypt1-ts, 0.78 / optical density, ypt1-ts, 1.56 / optical density, ypt1-ts, 3.13 / optical density, ypt1-ts, 6.25 / optical density, ypt1-ts, 12.5 / optical density, ypt1-ts, 25: Table 2; for optical density, ypt1-ts, 0.39: 0.39 μM compound; for optical density, ypt1-ts, 0.39 / optical density, ypt1-ts, 0.78 / optical density, ypt1-ts, 1.56 / optical density, ypt1-ts, 3.13 / optical density, ypt1-ts, 6.25 / optical density, ypt1-ts, 12.5 / optical density, ypt1-ts, 25: background (0 μM) 0.058; for optical density, ypt1-ts, 0.78: 0.78 μM compound; for optical density, ypt1-ts, 1.56: 1.56 μM compound; for optical density, ypt1-ts, 3.13: 3.13 μM compound; for optical density, ypt1-ts, 6.25: 6.25 μM compound; for optical density, ypt1-ts, 12.5: 12.5 μM compound; for optical density, ypt1-ts, 25: 25 μM compound
Method in brief: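 Whole-cell yeast growth-rescue screen: pdr5 ypt1^ts cells (efflux pump inactivated), growth-arrested at 37° C., cultured with compounds at 37° C. Restoration of growth read by optical density.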

[1] = Table 3, 3.13 uM compound, 37° C., background (0 uM) 0.077
[2] = Table 3, 12.5 uM compound, 37° C., background (0 uM) 0.077
[3] = Table 3, 50 uM compound, 37° C., background (0 uM) 0.077

O=C([O-])Cc1ccccc1Nc1c(Cl)cccc1Cl.[Na+] [DICLOFENAC SODIUM, reference compound]
minimal effective concentration (37° C.): 12.5 µM | optical density, ypt1-ts, 0.39 (37° C.): 0.085 | optical density, ypt1-ts, 0.78 (37° C.): 0.072 | optical density, ypt1-ts, 1.56 (37° C.): 0.077 | optical density, ypt1-ts, 3.13 (37° C.): 0.089 | optical density, ypt1-ts, 6.25 (37° C.): 0.092 | optical density, ypt1-ts, 12.5 (37° C.): 0.126 | optical density, ypt1-ts, 25 (37° C.): 0.242

C/C=C(/C(=C/C)c1ccc(O)cc1)c1ccc(O)cc1 [DIENESTROL, reference compound]
optical density, 3.13 uM [1]: 0.142 | optical density, 12.5 uM [2]: 0.309 | optical density, 50 uM [3]: 0.044

CC/C(=C(/CC)c1ccc(O)cc1)c1ccc(O)cc1 [DIETHYLSTILBESTROL, reference compound]
minimal effective concentration (37° C.): 12.5 µM | optical density, ypt1-ts, 0.39 (37° C.): 0.089 | optical density, ypt1-ts, 0.78 (37° C.): 0.076 | optical density, ypt1-ts, 1.56 (37° C.): 0.091 | optical density, ypt1-ts, 3.13 (37° C.): 0.108 | optical density, ypt1-ts, 6.25 (37° C.): 0.103 | optical density, ypt1-ts, 12.5 (37° C.): 0.163 | optical density, ypt1-ts, 25 (37° C.): 0.162

CC1(C)C(=O)CC[C@@]2(C)C1C[C@@H](O)[C@@]1(C)C3=CC(=O)O[C@@H](c4ccoc4)[C@]3(C)CCC21 (stereo partly shown) [DIHYDRO- 7- […]- OXYGEDUNIN]
optical density, 3.13 uM [1]: 0.197 | optical density, 12.5 uM [2]: 0.568 | optical density, 50 uM [3]: 0.328

Cc1c(O)c(O)cc2c1CC=C1[C@@]2(C)CC[C@@]2(C)C3C[C@](C)(C(=O)O)CC[C@]3(C)CC[C@]12C (stereo partly shown) [DIHYDRO- CELASTROL]
optical density, 3.13 uM [1]: 0.119 | optical density, 12.5 uM [2]: 0.526 | optical density, 50 uM [3]: 0.33

COC(=O)C[C@H]1C(C)(C)[C@@H](OC(C)=O)[C@@H]2CC3C(CC[C@]4(C)C3CC(=O)O[C@H]4c3ccoc3)[C@]1(C)C2=O (stereo partly shown) [DIHYDRO- FISSINOLIDE]
optical density, 3.13 uM [1]: 0.079 | optical density, 12.5 uM [2]: 0.085 | optical density, 50 uM [3]: 0.308

CC(=O)O[C@@H]1c2c(ccc3ccc(=O)oc23)OC(C)(C)[C@@H]1OC(=O)CC(C)C [DIHYDROSAMIDIN]
minimal effective concentration (37° C.): 12.5 µM | optical density, ypt1-ts, 0.39 (37° C.): 0.091 | optical density, ypt1-ts, 0.78 (37° C.): 0.068 | optical density, ypt1-ts, 1.56 (37° C.): 0.079 | optical density, ypt1-ts, 3.13 (37° C.): 0.105 | optical density, ypt1-ts, 6.25 (37° C.): 0.097 | optical density, ypt1-ts, 12.5 (37° C.): 0.14 | optical density, ypt1-ts, 25 (37° C.): 0.221

COc1ccc(C(=O)c2ccccc2O)c(O)c1 [DIOXY- BENZONE, reference compound]
optical density, 3.13 uM [1]: 0.088 | optical density, 12.5 uM [2]: 0.12 | optical density, 50 uM [3]: 0.579

CN(C)C(=O)Nc1ccc(Cl)c(Cl)c1 [DIURON]
minimal effective concentration (37° C.): 25 µM | optical density, ypt1-ts, 0.39 (37° C.): 0.082 | optical density, ypt1-ts, 0.78 (37° C.): 0.073 | optical density, ypt1-ts, 1.56 (37° C.): 0.087 | optical density, ypt1-ts, 3.13 (37° C.): 0.081 | optical density, ypt1-ts, 6.25 (37° C.): 0.095 | optical density, ypt1-ts, 12.5 (37° C.): 0.101 | optical density, ypt1-ts, 25 (37° C.): 0.132

COc1ccc2c(c1OC)OC[C@@H](c1ccc(OC)c(OC)c1OC)C2 [DUARTIN, DIMETHYL ETHER]
minimal effective concentration (37° C.): 3.13 µM | optical density, ypt1-ts, 0.39 (37° C.): 0.166 | optical density, ypt1-ts, 0.78 (37° C.): 0.092 | optical density, ypt1-ts, 1.56 (37° C.): 0.111 | optical density, ypt1-ts, 3.13 (37° C.): 0.14 | optical density, ypt1-ts, 6.25 (37° C.): 0.239 | optical density, ypt1-ts, 12.5 (37° C.): 0.287 | optical density, ypt1-ts, 25 (37° C.): 0.474

C[C@]12CCC3C(CC[C@H]4C[C@H](O)CC[C@]34C)C1CC[C@@H]2O (stereo partly shown) [EPIANDROSTANEDIOL]
minimal effective concentration (37° C.): 12.5 µM | optical density, ypt1-ts, 0.39 (37° C.): 0.082 | optical density, ypt1-ts, 0.78 (37° C.): 0.073 | optical density, ypt1-ts, 1.56 (37° C.): 0.068 | optical density, ypt1-ts, 3.13 (37° C.): 0.082 | optical density, ypt1-ts, 6.25 (37° C.): 0.099 | optical density, ypt1-ts, 12.5 (37° C.): 0.145 | optical density, ypt1-ts, 25 (37° C.): 0.321

CCCSP(=O)(OCC)SCCC [ETHOPROP]
optical density, 3.13 uM: 0.118 | optical density, 12.5 uM: 0.134 | optical density, 50 uM: 0.251

CC(=O)O[C@@H]1CC2C(C)(C)C(=O)C=C[C@]2(C)C2CC[C@@]3(C)[C@H](c4ccoc4)OC(=O)[C@H]4O[C@]43[C@@]21C (stereo partly shown) [GEDUNIN]
optical density, 3.13 uM [1]: 0.109 | optical density, 12.5 uM [2]: 0.231 | optical density, 50 uM [3]: 0.183

Cc1ccc(C)c(OCCCC(C)(C)C(=O)O)c1 [GEMFIBROZIL, reference compound]
minimal effective concentration (37° C.): 3.13 µM | optical density, ypt1-ts, 0.39 (37° C.): 0.106 | optical density, ypt1-ts, 0.78 (37° C.): 0.082 | optical density, ypt1-ts, 1.56 (37° C.): 0.1 | optical density, ypt1-ts, 3.13 (37° C.): 0.219 | optical density, ypt1-ts, 6.25 (37° C.): 0.442 | optical density, ypt1-ts, 12.5 (37° C.): 0.615 | optical density, ypt1-ts, 25 (37° C.): 0.358

COc1ccc2c(c1)O[C@H]1c3ccc(OC)cc3OC[C@@H]21 [HOMOPTEROCARPIN]
minimal effective concentration (37° C.): 25 µM | optical density, ypt1-ts, 0.39 (37° C.): 0.083 | optical density, ypt1-ts, 0.78 (37° C.): 0.064 | optical density, ypt1-ts, 1.56 (37° C.): 0.065 | optical density, ypt1-ts, 3.13 (37° C.): 0.071 | optical density, ypt1-ts, 6.25 (37° C.): 0.09 | optical density, ypt1-ts, 12.5 (37° C.): 0.117 | optical density, ypt1-ts, 25 (37° C.): 0.44

CC(C)c1c(O)ccc2c1CCC1[C@@](C)(CO)CCC[C@]21C (stereo partly shown) [HYDROXY (19)TOTAROL]
minimal effective concentration (37° C.): 12.5 µM | optical density, ypt1-ts, 0.39 (37° C.): 0.098 | optical density, ypt1-ts, 0.78 (37° C.): 0.076 | optical density, ypt1-ts, 1.56 (37° C.): 0.085 | optical density, ypt1-ts, 3.13 (37° C.): 0.106 | optical density, ypt1-ts, 6.25 (37° C.): 0.125 | optical density, ypt1-ts, 12.5 (37° C.): 0.407 | optical density, ypt1-ts, 25 (37° C.): 0.515

CCOC(=O)c1c(C)cc(O)c(C=O)c1O [H[…], ETHYL ESTER]
minimal effective concentration (37° C.): 3.13 µM | optical density, ypt1-ts, 0.39 (37° C.): 0.104 | optical density, ypt1-ts, 0.78 (37° C.): 0.078 | optical density, ypt1-ts, 1.56 (37° C.): 0.105 | optical density, ypt1-ts, 3.13 (37° C.): 0.135 | optical density, ypt1-ts, 6.25 (37° C.): 0.204 | optical density, ypt1-ts, 12.5 (37° C.): 0.621 | optical density, ypt1-ts, 25 (37° C.): 0.645

CC(C)=CCOc1c2occc2cc2ccc(=O)oc12 [IMPERATORIN]
minimal effective concentration (37° C.): 12.5 µM | optical density, ypt1-ts, 0.39 (37° C.): 0.084 | optical density, ypt1-ts, 0.78 (37° C.): 0.064 | optical density, ypt1-ts, 1.56 (37° C.): 0.066 | optical density, ypt1-ts, 3.13 (37° C.): 0.073 | optical density, ypt1-ts, 6.25 (37° C.): 0.082 | optical density, ypt1-ts, 12.5 (37° C.): 0.147 | optical density, ypt1-ts, 25 (37° C.): 0.244

COc1ccc(-c2coc3c(OC)c(OC)cc(O)c3c2=O)cc1 [ISO- TECTORIGENIN, 7-METHYL ETHER]
optical density, 3.13 uM [1]: 0.09 | optical density, 12.5 uM [2]: 0.147 | optical density, 50 uM [3]: 0.595

COc1ccc(C2CC(=O)c3ccc(OC)cc3O2)cc1 (stereo not shown) [LIQUIRITI- GENIN DIMETHYL ETHER]
optical density, 3.13 uM [1]: 0.086 | optical density, 12.5 uM [2]: 0.13 | optical density, 50 uM [3]: 0.364

CCOC(=O)N1CCC(=C2c3ccc(Cl)cc3CCc3cccnc32)CC1 [LORATADINE, reference compound]
minimal effective concentration (37° C.): 25 µM

Oc1ccc2c(c1)OCC1c3cc4c(cc3OC21)OCO4 (stereo not shown) [MAACKIAIN]
minimal effective concentration (37° C.): 25 µM | optical density, ypt1-ts, 0.39 (37° C.): 0.084 | optical density, ypt1-ts, 0.78 (37° C.): 0.073 | optical density, ypt1-ts, 1.56 (37° C.): 0.076 | optical density, ypt1-ts, 3.13 (37° C.): 0.103 | optical density, ypt1-ts, 6.25 (37° C.): 0.09 | optical density, ypt1-ts, 12.5 (37° C.): 0.104 | optical density, ypt1-ts, 25 (37° C.): 0.209

CC(=O)[C@H]1CCC2C3C[C@H](C)C4=CC(=O)CC[C@]4(C)C3[C@@H](O)C[C@@]21C (stereo partly shown) [MEDRY- SONE, reference compound]
optical density, 3.13 uM [1]: 0.114 | optical density, 12.5 uM [2]: 0.165 | optical density, 50 uM [3]: 0.266
